SMILES strings stand for the structures.

The target of this experiment is T1, human recombinant OX2 (hOX2) receptor expressed in CHO cells (Homo sapiens, UniProt O43614).
T1 construct: host or cells: CHO cells (hOX2-CHO)
T1 sequence (O43614 1-444): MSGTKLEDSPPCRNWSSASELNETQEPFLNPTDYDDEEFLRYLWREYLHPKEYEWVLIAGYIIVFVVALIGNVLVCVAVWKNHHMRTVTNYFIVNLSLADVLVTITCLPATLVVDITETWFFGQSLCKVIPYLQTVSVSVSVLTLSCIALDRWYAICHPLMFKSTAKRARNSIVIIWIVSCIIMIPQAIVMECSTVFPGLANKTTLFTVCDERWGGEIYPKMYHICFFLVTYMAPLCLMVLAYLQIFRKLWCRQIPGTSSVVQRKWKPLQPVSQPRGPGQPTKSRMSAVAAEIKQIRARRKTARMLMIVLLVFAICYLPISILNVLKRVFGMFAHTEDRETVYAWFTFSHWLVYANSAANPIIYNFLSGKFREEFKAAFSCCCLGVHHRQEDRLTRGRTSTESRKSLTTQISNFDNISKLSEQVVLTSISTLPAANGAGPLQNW
Description: IP-1 accumulation assay (IP-One HTRF) in hOX2-CHO cells. The experiment is classed as cell-based. The following applies: 60 min at 37° C., 11 points CRC, response as % of maximal OX-A response. The protocol: The accumulation of Inositol-1 Monophosphate (IP-1) was measured using IP-One HTRF® Terbium cryptate based assay (Cisbio) in human recombinant OX1 (hOX1) and at OX2 (hOX2) receptors expressed in CHO cells (DiscoverX) according to the manufacturer's instructions for cells tested in suspension.
hOX1-CHO and hOX2-CHO cells were seeded into white 384-well plates at a density of 20,000 cells/well in Hank's Balanced Salt Solution (HBSS) containing 20 mM HEPES pH 7.4, 50 mM, LiCl and 0.1% and Bovine Serum Albumin (BSA).
Compounds of the present disclosure were tested in a 11 points concentration response curve (CRC) serially diluted in neat DMSO at 200 fold concentrations and added by Echo acoustic liquid handling (Labcyte) to the cells (0.5% DMSO final in the assay). After 60 min of incubation at 37° C. detection reagents, IP1-d2 tracer and anti-IP1-cryptate were diluted in lysis buffer according to the manufacturer's descriptions and added to the cells.
Following 60 min incubation at room temperature, time-resolved fluorescence (HTRF) was measured at 615 nm and 665 nm by Envision Multilabel reader (Perkin Elmer) and the HTRF ratio (A665/A615x104) was calculated.
The IP-1 accumulation response was expressed as percentage of the maximal OX-A response.
Curve fitting and EC50 estimations were carried out using a four-parameter logistic model using XLfit Software. Mean data of EC50 are calculated from at least two independent experiments performed in duplicates.
In the Tables, below Category A corresponds to compounds displaying an […]<100 nM, Category B between 100 nM and 1,000 nM, Category C between 1,000 nM and 10,000 nM and Category D above 10,000 nM.
On the technique in general: TR-FRET usually uses a lanthanide donor and a delayed reading to cut background.
With `Cn1cccc(C(CNS(C)(=O)=O)CO[C@H]2CC[C@@H](c3ccccc3)CC2)c1=O` (single isomer, unassigned; isomer 2) [Example 4b, (S or R) N-[2-(1-methyl-2-oxo-1,2-dihydropyridin-3-yl)-3-{[(CIS)-4-phenylcyclohexyl]oxy}propyl]methanesulfonamide—Isomer 2], the EC50 (in general, the concentration giving half of the maximal effect) is greater than 10 µM. For the molecule `Cc1cc(C(CNS(=O)(=O)N(C)C)CO[C@H]2CC[C@@H](c3cccc(F)c3)CC2)c(=O)n(C(F)F)c1` (single isomer, unassigned; isomer 2) [Example 5ac, (S or R) 1-(difluoromethyl)-3-[1-[(dimethylsulfamoyl)amino]-3-{[(CIS)-4-(3-fluorophenyl)cyclohexyl]oxy}propan-2-yl]-5-methyl-1,2-dihydropyridin-2-one—Isomer 2], the EC50 fell in the range of 0.1 to 1 µM. `Cc1cc(C(CNS(C)(=O)=O)CO[C@H]2CC[C@@H](c3cccc(F)c3)CC2)c(=O)n(C)c1` (single isomer, unassigned; isomer 2) [Example 5d, (S or R) N-[2-(1,5-dimethyl-2-oxo-1,2-dihydropyridin-3-yl)-3-{[(CIS)-4-(3-fluorophenyl)cyclohexyl]oxy}propyl]methanesulfonamide—Isomer 2]: the half-maximal effective concentration (EC50) is 0.1 to 1 µM. `Cc1cc(C)[n+]([O-])c(C(CNS(C)(=O)=O)CO[C@H]2CC[C@@H](c3ccccc3)CC2)c1` (single isomer, unassigned; isomer 2) [Example 5l, (S or R) 2-[1-methanesulfonamido-3-{[(CIS)-4-phenylcyclohexyl]oxy}propan-2-yl]-4,6-dimethylpyridin-1-ium-1-olate—Isomer 2]: the 50% effective concentration (EC50) was in the range of 1 to 10 µM. As to `Cc1cc(C(CNS(=O)(=O)CF)CO[C@H]2CC[C@@H](c3cccc(F)c3)CC2)c(=O)n(C)c1` (single isomer, unassigned; isomer 2) [Example 5o, (S or R) N-[2-(1,5-dimethyl-2-oxo-1,2-dihydropyridin-3-yl)-3-{[(CIS)-4-(3-fluorophenyl)cyclohexyl]oxy}propyl]-1-fluoromethanesulfonamide—Isomer 2], the EC50 is 0.1 to 1 µM. To `Cc1cc(C(CNS(C)(=O)=O)CO[C@H]2CC[C@@H](c3cccc(F)c3)CC2)c(=O)n(C(F)F)c1` (single isomer, unassigned; isomer 2) [Example 5z, (S or R) N-[2-[1-(difluoromethyl)-5-methyl-2-oxo-1,2-dihydropyridin-3-yl]-3-{[(CIS)-4-(3-fluorophenyl)cyclohexyl]oxy}propyl]methanesulfonamide—Isomer 2] belongs 1 to 10 µM. With `Cc1cccn(C(CO[C@H]2CC[C@@H](c3ccccc3)CC2)C(C)NS(C)(=O)=O)c1=O` (single isomer, unassigned; isomer 3) [Example 3c, (2S or 2R) and (3R or 3S) N-[3-(3-methyl-2-oxo-1,2-dihydropyridin-1-yl)-4-{[(CIS)-4-phenylcyclohexyl]oxy}butan-2-yl]methanesulfonamide—Isomer 3], the EC50 was greater than 10 µM.

`Cc1cccn(C(CO[C@H]2CC[C@@H](c3ccccc3)CC2)C(C)NS(C)(=O)=O)c1=O` (single isomer, unassigned; isomer 4) [Example 3d, (2R or 2S) and (3S or 3R) N-[3-(3-methyl-2-oxo-1,2-dihydropyridin-1-yl)-4-{[(CIS)-4-phenylcyclohexyl]oxy}butan-2-yl]methanesulfonamide—Isomer 4]: the EC50 was in the range of 1 to 10 µM. Regarding `CS(=O)(=O)NCC(CO[C@H]1CC[C@@H](c2ccccc2)CC1)n1ccccc1=O` (stereo partly drawn) [Example 1, N-[2-(2-oxo-1,2-dihydropyridin-1-yl)-3-{[(CIS)-4-phenylcyclohexyl]oxy}propyl]methanesulfonamide], the EC50 fell in the range of 1 to 10 µM. As for `Cc1cccn(C(CNS(C)(=O)=O)CO[C@H]2CC[C@@H](c3ccccc3)CC2)c1=O` (stereo partly drawn) [Example 1c, N-[2-(3-methyl-2-oxo-1,2-dihydropyridin-1-yl)-3-{[(CIS)-4-phenylcyclo-hexyl]oxy}propyl] methane-sulfonamide], the EC50 lay in the range of 0.1 to 1 µM. Take `CCc1cccn(C(CNS(C)(=O)=O)CO[C@H]2CC[C@@H](c3ccccc3)CC2)c1=O` (stereo partly drawn) [Example 2, N-[2-(3-ethyl-2-oxo-1,2-dihydropyridin-1-yl)-3-{[(CIS)-4-phenylcyclohexyl]oxy}propyl]methanesulfonamide]: the half-maximal effective concentration (EC50) fell in the range of 1 to 10 µM. On to `Cc1ccn(C(CNS(C)(=O)=O)CO[C@H]2CC[C@@H](c3ccccc3)CC2)n1` (stereo partly drawn) [Example 2aa, N-[2-(3-methyl-1H-pyrazol-1-yl)-3-{[(CIS)-4-phenylcyclohexyl]oxy}propyl]methanesulfonamide], for which the concentration giving a half-maximal response (EC50) is greater than 10 µM. For `Cc1cncn(C(CNS(C)(=O)=O)CO[C@H]2CC[C@@H](c3ccccc3)CC2)c1=O` (stereo partly drawn) [Example 2aj, N-[2-(5-methyl-6-oxo-1,6-dihydropyrimidin-1-yl)-3-{[(CIS)-4-phenylcyclohexyl]oxy}propyl]methanesulfonamide], the 50% effective concentration (EC50) was greater than 10 µM.

`CS(=O)(=O)NCC(CO[C@H]1CC[C@@H](c2ccccc2)CC1)n1c(=O)ccc2ccccc21` (stereo partly drawn) [Example 2ak, N-[2-(2-oxo-1,2-dihydroquinolin-1-yl)-3-{[(CIS)-4-phenylcyclohexyl]oxy}propyl]methanesulfonamide]: the EC50 is greater than 10 µM. As to `Cc1cc(C)c(=O)n(C(CNS(=O)(=O)C2CC2)CO[C@H]2CC[C@@H](c3cccc(F)c3)CC2)c1` (stereo partly drawn) [Example 2al, N-[2-(3,5-dimethyl-2-oxo-1,2-dihydropyridin-1-yl)-3-{[(CIS)-4-(3-fluorophenyl)cyclohexyl]oxy}propyl]cyclopropanesulfonamide], the EC50 was less than 0.1 µM. With `Cc1cc(C)c(=O)n(C(CNS(=O)(=O)CC(F)F)CO[C@H]2CC[C@@H](c3cccc(F)c3)CC2)c1` (stereo partly drawn) [Example 2ao, N-[2-(3,5-dimethyl-2-oxo-1,2-dihydropyridin-1-yl)-3-{[(CIS)-4-(3-fluorophenyl)cyclohexyl]oxy}propyl]-2,2-difluoroethane-1-sulfonamide], the 50% effective concentration (EC50) lay in the range of 0.1 to 1 µM. Under `Cc1cc(C)c(=O)n(C(CNS(=O)(=O)CC(F)(F)F)CO[C@H]2CC[C@@H](c3cccc(F)c3)CC2)c1` (stereo partly drawn) [Example 2ap, N-[2-(3,5-dimethyl-2-oxo-1,2-dihydropyridin-1-yl)-3-{[(CIS)-4-(3-fluorophenyl)cyclohexyl]oxy}propyl]-2,2,2-trifluoroethane-1-sulfonamide] stands 0.1 to 1 µM. To `Cc1cc(C)c(=O)n(C(CNS(=O)(=O)N(C)C)CO[C@H]2CC[C@@H](c3cccc(F)c3)CC2)c1` (stereo partly drawn) [Example 2aq, 1-{1-[(dimethylsulfamoyl)amino]-3-{[(CIS)-4-(3-fluorophenyl)cyclohexyl]oxy}propan-2-yl}-3,5-dimethyl-1,2-dihydropyridin-2-one] belongs less than 0.1 µM; to `Cc1cc(C)c(=O)n(C(CNS(=O)(=O)CF)CO[C@H]2CC[C@@H](c3cccc(F)c3)CC2)c1` (stereo partly drawn) [Example 2at, N-[2-(3,5-dimethyl-2-oxo-1,2-dihydropyridin-1-yl)-3-{[(CIS)-4-(3-fluorophenyl)cyclohexyl]oxy}propyl]-1-fluoromethanesulfonamide], less than 0.1 µM.

On to `COCCS(=O)(=O)NCC(CO[C@H]1CC[C@@H](c2cccc(F)c2)CC1)n1cc(C)cc(C)c1=O` (stereo partly drawn) [Example 2ax, N-[2-(3,5-dimethyl-2-oxo-1,2-dihydropyridin-1-yl)-3-{[(CIS)-4-(3-fluorophenyl)cyclohexyl]oxy}propyl]-2-methoxyethane-1-sulfonamide], for which the EC50 was less than 0.1 µM.

The record behind these values is patent US20240360081A1, “SULFONAMIDE OREXIN RECEPTOR AGONISTS AND USES THEREOF” (Jazz Pharmaceuticals Ireland Limited, priority 2021, published 2024).
